Measured values taken from patent US6835751B2, “Bicyclic amino acids as pharmaceutical agents” (Warner-Dambert Company LLC, priority 1999, dated 2004).
Counter-ions that a name gives are not always drawn.

Each compound was assayed on carrageenan-induced hyperalgesia model (assay: Carrageenin-induced hyperalgesia, rat paw pressure test (Randall-Selitto)). Conditions: dosed orally at 30 mg/kg; 1 hour postdose.
Type: in vivo
Protocol: Carrageenin-Induced Hyperalgesia
Nociceptive pressure thresholds were measured in the rat paw pressure test using an analgesimeter (Randall-Selitto method: Randall L. O. and Selitto J. J., “A method for measurement of analgesic activity on inflamed tissue,” Arch. Int. Pharmacodyn., 1957;4:409-419). Male Sprague-Dawley rats (70-90 g) were trained on this apparatus before the test day. Pressure was gradually applied to the hind paw of each rat and nociceptive thresholds were determined as the pressure (g) required to elicit paw withdrawal. A cutoff point of 250 g was used to prevent any tissue damage to the paw. On the test day, two to three baseline measurements were taken before animals were administered 100 μL of 2% carrageenin by intraplantar injection into the right hind paw.
(R)-2-Aza-spiro[4.5]decane-4-carboxylic acid hydrochloride was tested in the above carrageenan-induced hyperalgesia model. The compound was dosed orally at 30 mg/kg, and 1 hour postdose gave a percent of maximum possible effect ([…]) of 53%. At 2 hours postdose, it gave only 4.6% of MPE.
For `Cl.O=C(O)[C@H]1CNCC12CCCCC2` [(R)-2-Aza-spiro[4.5]decane-4-carboxylic acid hydrochloride], the “percent of maximum possible effect (APE)” value was 53%.

Same assay, conditions: dosed orally at 30 mg/kg; 2 hours postdose
In the case of `Cl.O=C(O)[C@H]1CNCC12CCCCC2` [(R)-2-Aza-spiro[4.5]decane-4-carboxylic acid hydrochloride], the “% of MPE” value is reported as 4.6%.

These compounds were tested on α2δ subunit (assay: radioligand binding assay using [3H]gabapentin and the α2δ subunit). Conditions: [3H]gabapentin radioligand; α2δ subunit from porcine brain tissue.
With `NC[C@@]1(CC(=O)O)C[C@H]2CC[C@H]2C1` [(1α,3β,5α)(3-Aminomethyl-bicyclo[3.2.0]hept-3-yl)-acetic acid hydrochloride] the “α2δ binding affinity” value was 0.332 µM.
In the case of `NC[C@]1(CC(=O)O)C[C@H]2CCC[C@H]2C1` [(1α,3α,5α)(2-Aminomethyl-octahydro-pentalen-2-yl)-acetic Acid Hydrochloride], the “α2δ binding affinity” value is reported as 1.58 µM.
With `NCC1(CC(=O)O)C[C@H]2CC[C@@H]2C1` (racemic) [(±)-(1α,5β)(3-aminomethyl-bicyclo[3.2.0]hept-3-yl)-ascetic Acid Hydrochloride] the “α2δ binding affinity” value was 2.86 µM.
For `NCC1(CC(=O)O)C[C@H]2CCCC[C@@H]2C1` (racemic) [(±)-(1α,6β)(2-Aminomethyl-octahydro-inden-2-yl)-acetic Acid Hydrochloride], the “α2δ binding affinity” value was greater than 10 µM.
With `NC[C@]1(CC(=O)O)C[C@H]2CC[C@H]2C1` [(1α,3α,5α)(3-Aminomethyl-bicyclo[3.2.0]hept-3-yl)-acetic Acid Hydrochloride] the “α2δ binding affinity” value was 0.038 µM.
For `NC[C@]1(CC(=O)O)C[C@H]2CCCC[C@H]2C1` [(1α,6α,8α)(2-Aminomethyl-octahydro-inden-2-yl)-acetic acid hydrochloride], the “α2δ binding affinity” value was 0.72 µM.
In the case of `NCC1(CC(=O)O)C[C@H]2CCC[C@@H]2C1` (racemic) [(±)-(1α,5β)(2-Aminomethyl-octahydro-pentalen-2-yl)-acetic Acid Hydrochloride], the “α2δ binding affinity” value is reported as greater than 10 µM.
With `NC[C@@]1(CC(=O)O)C[C@H]2CCCC[C@H]2C1` [((1α,6α,8β)(2-Aminomethyl-octahydro-inden-2-yl)-acetic Acid Hydrochloride] the “α2δ binding affinity” value was greater than 10 µM.
